Test in all cases: NCI tumour cell line growth inhibition, 48 h
Assay [1] has as its system NCI-H460 lung.
Assay [2] relates to SF-268 CNS.
Assay [3] relates to K-562 leukemia.
Assay [4] has as its system TK-10 renal.
Assay [5] relates to RXF 393 renal.
The test system of assay [6] is SW-620 colon.
Assay [7] has as its system U251 CNS.
The subject of assay [8] is MOLT-4 leukemia.
Assay [9] concerns HOP-92 NSCLC.

Structures are written as SMILES. Values joined by “and” are separate entries in the source; they are usually repeats but may differ in a detail not shown here. Identical values can stand only once.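 Results reflect a 48-hour exposure of cells in 96-well plates to compound at five concentrations. Here, GI50 denotes the concentration required for 50% inhibition of growth. Definition used: TGI = concentration required for complete inhibition of growth.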

Regarding `CN(C)c1ccc(-c2cc(=O)c3ccccc3[nH]2)cc1`, the TGI in assay [1], in assay [2], in assay [3], in assay [4], in assay [5] and in assay [6] was over 100 µM each time. Besides, the TGI in assay [7] and in assay [8] was over 100 µM in each case.

In the case of `C=CC1(C)CCC(C(C)C(=O)C(C=C(C)C)OC(C)=O)C12C(=O)Oc1ccccc1C2=O` (stereo unspecified), the TGI in assay [1], in assay [9], in assay [2], in assay [3], in assay [4] and in assay [5] was over 100 µM in each case. Also, the results for the TGI in assay [6], in [7] and in assay [8] were over 100 µM, over 100 µM and 78.7 µM, respectively.

With `O=C(O)c1ccc(S(=O)(=O)c2ccccc2)c([N+](=O)[O-])c1`, the TGI in assay [1], in assay [9], in [2], in [3], in assay [4] and in assay [5] was over 100 µM in each case. The TGI in assay [6], in assay [7] and in assay [8] was over 100 µM throughout.

As to `O=C(O)c1ccc(NC(=O)C2C(=O)C(=O)N(c3ccc(C(=O)O)cc3)C2=O)cc1` (stereo unspecified), the TGI in [1], in [9], in assay [2], in assay [3], in [4] and in assay [5] was over 100 µM in each case. In addition, the TGI in assay [6], in assay [7] and in assay [8] was over 100 µM each time.

Regarding `O=C(Cc1nc2ccccc2s1)C(=O)Nc1ccc(Cl)cc1`, the TGI in assay [1], in [9], in assay [2], in assay [3], in [4] and in [6] was over 100 µM in each case. Moreover, the TGI in [7] and in assay [8] was over 100 µM throughout.

In the case of `CC(=O)N1CCC2(C=Nc3ccccc32)CC1`, the TGI in [1], in assay [9], in assay [3], in assay [4], in [6] and in [7] was over 100 µM throughout. In [8], this compound had a TGI of over 100 µM.

As for `CC(=O)Nc1ccc(/C=C(\NC(=O)c2ccccc2)c2nc3ccc4c(c3[nH]2)C(=O)c2ccccc2C4=O)cc1`, the TGI was over 100 µM in assay [9]; over 100 µM in [2]; over 100 µM in assay [3]; over 100 µM in [4]; 49.1 µM in [5]; over 100 µM in assay [6]. Moreover, the TGI is over 100 µM in assay [7] and 49.3 µM in [8].

Consider `Cc1cc2c(cc1C)NC(=O)C(NC(=O)/C=C/c1ccccc1)C=N2` (stereo unspecified), for which the TGI in assay [1] is over 100 µM; in assay [2] it was over 100 µM; in assay [3] it was 62.2 µM; in assay [4], over 100 µM; in [5], 59.7 µM; in [6], 19.6 µM. For the same compound, the TGI in [7] stood at 70.2 µM; in assay [8], 57.7 µM.

As to `CCNc1nnc(CSc2nc(-c3ccccc3)c(-c3ccccc3)[nH]2)s1`, the TGI in assay [1] came out at 59.2 µM; in assay [9], 41.9 µM; in [2], 39.3 µM; in assay [4] it was 56.5 µM; in assay [6], 44.1 µM; in [7], 26.9 µM. This compound also gave a TGI in [8] of 56.7 µM.

`COc1cc(Nc2cnc3cc(C(F)(F)F)ccc3n2)cc(OC)c1OC`: the TGI in assay [1], in assay [9], in assay [2], in assay [4], in assay [5] and in assay [6] was over 100 µM throughout. The TGI in assay [7] and in assay [8] was over 100 µM in each case.

For `C/C(=N\NC(=S)N1CCCCCC1)c1nccnc1C`, the TGI in assay [2] is over 100 µM; in [3], over 100 µM; in assay [4], over 100 µM; in assay [5], 7.06 µM; in assay [6] it was over 100 µM; in [7], over 100 µM.

Turning to `CCCCCCCCCCCCCS(=O)(=O)O`, the TGI in assay [1], in [9], in [2], in [4], in assay [5] and in [6] was over 100 µM throughout. Moreover, in [7], the TGI was over 100 µM.

Turning to `O=C1NC(=O)C(C(=O)C(=O)Nc2ccc(Br)cc2)C(=O)N1`, the TGI in assay [9], in assay [2], in [3], in assay [5], in [6] and in assay [7] was over 100 µM throughout. In [8], this compound displayed a TGI of over 100 µM.

`CC(Cn1c2c3ccccc3ccc2c2oc(=O)c3ccccc3c21)N(C)C` (stereo unspecified): the TGI in [1], in [9], in assay [2], in [3], in assay [4] and in assay [6] was over 100 µM each time. Further, the TGI in [7] and in assay [8] was over 100 µM each time.

For the compound `O=C(CCN1CCN(c2cccc(Cl)c2)CC1)N1CCc2c([nH]c3ccccc23)C1c1cccnc1` (stereo unspecified), the TGI is 16.9 µM in assay [1]; 9.52 µM and 35.7 µM in [9]; 18.6 µM in [3]; 10.9 µM in assay [4]; 21 µM in assay [5]; 23.8 µM in assay [6]. The TGI in [7] was 21.5 µM; in assay [8], 26.6 µM. Besides, the GI50 in [9] was 12.3 µM; in assay [3] it was 3.99 µM; in assay [4], 2.53 µM; in assay [5] it was 6.31 µM; in assay [7] it was 9.96 µM; in [8], 4.65 µM.

Regarding `CN/N=C(/Cc1occc(=O)c1O)C(=O)Nc1ccc(C)c(C)c1`, the TGI in assay [1], in assay [9], in [2], in assay [3], in assay [4] and in assay [6] was over 100 µM in each case. The TGI in [7] and in [8] was over 100 µM in each case.

These data come from PubChem BioAssay (NCI).
